Patent US11427593B2, “Bromodomain inhibitor compound and use thereof” (SHANGHAI INSTITUTE OF MATERIA MEDICA, CHINESE ACADEMY OF …, priority 2018, dated 2022)

The molecules below were run against BRD4_BD1 (49-170) protein (Homo sapiens (Human), UniProt O60885) (assay: AlphaScreen assay: inhibition of binding of BRD4 bromodomain BD1 to acetylated histone H4 polypeptide). Details: BRD4 BD1 vs acetylated H4 polypeptide, read-out: ALPHA IC50.
Source text: AlphaScreen kit (Perkin Elmer) was used to detect effect of the compounds on binding of BRD4 bromodomain to acetylated histone H4 polypeptide. […] Each of fusion proteins containing (His)6tag can be recognized and bound by Ni^2+. […] The donor microbeads were coated with streptavidin and can bind to biotinylated acetylated H4 polypeptide. The acceptor microbeads were coated with Ni^2+ ions and can bind to the BD1 protein with (His)6tag. When the BD1 protein recognized the acetylated H4 polypeptide, the donor microbeads and the acceptor microbeads can be brought closer to a certain distance. Within this range, the donor microbeads can produce singlet oxygen after being irradiated with a 680 nm excitation light, and transfer the singlet oxygen to the acceptor microbeads. After a series of cascade chemical reactions, the acceptor microbeads will generate an emission wave of 520-620 nm, which in turn can be detected a signal. In this experiment, the test system was 20 μL, and the compound needs to be diluted in buffer 1 (20 mM HEPES pH 7.4, 150 mM NaCl, 1 mM dithiothreitol). First, a solution of 20 mM compound was consecutively diluted twice, each in 10 times, totally in 100 times to a concentration of 200 μM. […] The recombinant BD1 protein solution and the acetylated histone H4 polypeptide were diluted in the buffer 2 (20 mM HEPES pH 7.4, 150 mM NaCl, 0.01% Triton X-100, 0.1% bovine serum protein (w/v, Sigma), 1 mM dithiothreitol) to 100 nM and 100 nM respectively, to obtain a 8×BD1 protein working solution and a 4× acetylated histone H4 polypeptide working solution. The donor microbeads and the acceptor microbeads are diluted together in the buffer 2, both in the ratio of 1:100, to obtain a 2× microbead mixed working solution. The plate was added with 2.5 μL of BD1 protein working solution and incubated with the compound for 20 min at room temperature, and then added with 5 μL of acetylated histone H4 polypeptide working solution and incubated at room temperature for 5 min, and finally added with 10 μL of microbead mixed working solution and incubated at room temperature for 60 min. […] IC50 values of the compounds at different concentrations for inhibiting the binding of BD1 protein to acetylated H4 polypeptide were calculated by fitting using GraphPad Prism 5.0 software.

First: Cc1cc(-c2cc(NS(C)(=O)=O)ccc2Oc2cccnc2)n2cc[nH]c(=O)c12 [ZB-BD-94]
Second: Cc1cc(-c2cc(NS(C)(=O)=O)ccc2Oc2cccnc2)n2cn[nH]c(=O)c12 [ZB-BD-120]
The IC50 of the first is 2.6-fold lower: 14 nM for the first, 36.6 nM for the second. The first is the more potent here.

Compared with `CCS(=O)(=O)Cc1ccc(Oc2ccc(F)cc2F)c(-c2cc(C)c3c(=O)[nH]ccn23)c1` [ZB-BD-116], `CCS(=O)(=O)Cc1cnc(Oc2ccc(F)cc2F)c(-c2cc(C)c3c(=O)[nH]ncn23)c1` [ZB-BD-241] is 1.6-fold higher in IC50: 8.8 nM for the first, 14.3 nM for the second. The first is the more potent here.

For `Cc1cc(-c2cc(S(C)(=O)=O)ccc2Nc2ccccc2)n2cc[nH]c(=O)c12` [ZB-BD-130], the IC50 was 326 nM.

Each molecule was assayed on MV4-11 cells (assay: Cell growth inhibition assay, MV4-11 (CellTiter-Glo, 72 h)). Details: Homo sapiens, MV4-11 acute mononuclear leukemia cells.
Format: cell-based
Description: After seeding the cells in the plate, the cells were placed in a CO2 incubator (37° C., 5% CO2) and incubated for 1 h. […] After adding the compound, the cells were placed in a CO2 incubator (37° C., 5% CO2) for 72 h. CellTiter-Glo reagent (Promega, G7572) was used to determine cell survival. […] The detection result was analyzed and fitted by GraphPad Prism 5.0 software to give IC50 values.

First: Cc1cc(-c2cc(NS(C)(=O)=O)ccc2Oc2ccccc2)n2cc[nH]c(=O)c12 [ZB-BD-70]
Second: CCS(=O)(=O)Nc1ccc(Oc2ccccc2)c(-c2cc(C)c3c(=O)[nH]ccn23)c1 [ZB-BD-77]
The IC50 of the first is 2.5-fold higher: 33.1 nM for the first, 13.4 nM for the second. The second is the more potent here.

`Cc1cc(-c2cc(NS(C)(=O)=O)ccc2Oc2ccccc2)n2c1C(=O)NCC2` [ZB-BD-74] and `Cc1cc(-c2cc(NS(C)(=O)=O)ccc2Oc2ccccc2)n2cn[nH]c(=O)c12` [ZB-BD-102] cannot be ordered by IC50: 31.2 nM for the first, < 100 nM for the second.

`CCS(=O)(=O)Nc1ccc(Oc2ccc(F)cc2F)c(-c2cc(C)c3c(=O)[nH]ccn23)c1` [ZB-BD-78] and `Cc1cc(-c2cc(NS(C)(=O)=O)ccc2Oc2ccc(F)cc2F)n2cc[nH]c(=O)c12` [ZB-BD-80] are within 1.5-fold of each other in IC50: 20.4 nM for the first, 29.2 nM for the second.

Going from `Cc1cc(-c2cc(NS(C)(=O)=O)ccc2OCC2CC2)n2cc[nH]c(=O)c12` [ZB-BD-83] to `Cc1cc(-c2cc(NS(C)(=O)=O)ccc2OC2CCOCC2)n2cc[nH]c(=O)c12` [ZB-BD-96], the IC50 falls from 131 nM to < 100 nM.

`Cc1cc(-c2cc(CS(C)(=O)=O)ccc2Nc2ccccc2)n2cc[nH]c(=O)c12` [ZB-BD-87] and `Cc1cc(-c2cc(CS(C)(=O)=O)ccc2Nc2ccc(F)cc2)n2cc[nH]c(=O)c12` [ZB-BD-90] are within 1.5-fold of each other in IC50: 78.7 nM for the first, 76.6 nM for the second.

`Cc1cc(-c2cc(NS(C)(=O)=O)ccc2Oc2cccnc2)n2cc[nH]c(=O)c12` [ZB-BD-94] and `Cc1cc(-c2cc(NS(C)(=O)=O)ccc2Oc2cccnc2)n2cn[nH]c(=O)c12` [ZB-BD-120] are within 1.5-fold of each other in IC50: 91 nM for the first, 113 nM for the second.

`Cc1cc(-c2cc(NS(C)(=O)=O)ccc2Oc2ccc(F)cc2F)n2cn[nH]c(=O)c12` [ZB-BD-103] and `CCS(=O)(=O)Cc1cnc(Oc2ccc(F)cc2F)c(-c2cc(C)c3c(=O)[nH]ncn23)c1` [ZB-BD-241] cannot be ordered by IC50: < 100 nM for the first, 7.9 nM for the second.

Compared with `Cc1ccccc1Oc1ccc(NS(C)(=O)=O)cc1-c1cc(C)c2c(=O)[nH]ccn12` [ZB-BD-232], `Cc1cccc(C)c1Oc1ccc(NS(C)(=O)=O)cc1-c1cc(C)c2c(=O)[nH]ccn12` [ZB-BD-236] is 1.9-fold higher in IC50: 25.4 nM for the first, 48.5 nM for the second.

Compared with `CCS(=O)(=O)Cc1ccc(Oc2c(C)cccc2C)c(-c2cc(C)c3c(=O)[nH]ccn23)c1` [ZB-BD-237], `CCS(=O)(=O)c1ccc(Oc2c(C)cccc2C)c(-c2cc(C)c3c(=O)[nH]ccn23)c1` [ZB-BD-239] is 4.2-fold higher in IC50: 21.6 nM for the first, 90.6 nM for the second.

`CCS(=O)(=O)c1ccc(Oc2ccccc2C)c(-c2cc(C)c3c(=O)[nH]ccn23)c1` [ZB-BD-240] showed an IC50 of 5.3 nM.

The molecules below were run on MM.1S cells (assay: MM.1S cell growth inhibition assay (CellTiter Glo, 96 h)). Details: Homo sapiens, MM1.S, MM.1S multiple myeloma cells.
Format: cell-based
Description: The cell suspension was pipetted into a 15 mL centrifuge tube, and centrifuged at 800 rpm for 3 minutes. The supernatant was discarded. 2 mL of culture medium was added to the centrifuge tube, and the cells were resuspended evenly by gentle pipetting. The cell density was measure by a hemacytometer. Then the cell suspension was diluted to 50,000 cells/mL. The diluted cell suspension was added to a 96-well cell culture plate (Corning, 3599) in 100 μl/well (in column 1, there was 0.5% DMSO-containing medium in each well, and MM.1S cells were seeded in the remaining 88 wells). The plate was placed in a CO2 incubator overnight.
The compound to be tested was prepared into 10 mM solution in DMSO, and then the compound was prepared into a 2 mM solution in DMSO, which was added to the compound plate, and then it was diluted with DMSO in a 4-fold gradient dilution to be 7 points. 0.5 μL of the compound in the plate of the compound to be tested was pipetted into the cell culture plate (the compound was added to rows A to G, and 0.5 μL of DMSO was added to row H as a control). The final concentrations of the compound were 10000 nM, 2500 nM, 625 nM, 156.25 nM, 39.06 nM, 9.77 nM, 2.44 nM. The plate was returned to the CO2 incubator and incubated for 96 h. Then cell survival was detected by using CellTiter Glo reagent (Promega, Cat. No. G7573, Lot. No. 0000310975). The cell culture plate was taken out and equilibrated to room temperature. 100 μL of CellTiter Glo reagent was added to each well. The plate was shaken for 10 min in the dark, and incubated for 10 min. Then the culture plate was put into a multi-functional microplate reader EnSpire (PerkinElmer) for reading, and detected at 400-700 nm. The reading data were recorded. […] XLFit was used to plot the dose-response inhibition curve (four-parameter model [fit=(A+((B−A)/(1+((C/x)^D))))] and calculate the IC50 values.

`CCS(=O)(=O)Nc1ccc(Oc2ccc(F)cc2F)c(-c2cc(C)c3c(=O)[nH]ccn23)c1` [ZB-BD-78] and `CCS(=O)(=O)Cc1ccc(Oc2ccc(F)cc2F)c(-c2cc(C)c3c(=O)[nH]ccn23)c1` [ZB-BD-116] are within 1.5-fold of each other in IC50: 52.1 nM for the first, 70.3 nM for the second.

Compared with `Cc1cc(-c2cc(NS(C)(=O)=O)ccc2OC2CCCCC2)n2cc[nH]c(=O)c12` [ZB-BD-92], `Cc1cc(-c2cc(CS(C)(=O)=O)ccc2OC2CCCCC2)n2cc[nH]c(=O)c12` [ZB-BD-187] is 1.7-fold lower in IC50: 39.2 nM for the first, 22.8 nM for the second. The second is the more potent here.

`Cc1cc(-c2cc(CS(C)(=O)=O)ccc2Oc2ccc(F)cc2F)n2cc[nH]c(=O)c12` [ZB-BD-112] and `Cc1cc(-c2cc(CS(C)(=O)=O)cnc2Oc2ccc(F)cc2F)n2cc[nH]c(=O)c12` [ZB-BD-147] are within 1.5-fold of each other in IC50: 64.3 nM for the first, 73.5 nM for the second.

Compared with `Cc1cc(-c2cc(NS(C)(=O)=O)cnc2OC2CCCCC2)n2cc[nH]c(=O)c12` [ZB-BD-179], `Cc1cc(-c2cc(CS(C)(=O)=O)cnc2OC2CCCCC2)n2cc[nH]c(=O)c12` [ZB-BD-202] is 2.1-fold lower in IC50: 53.2 nM for the first, 25.7 nM for the second. The second is the more potent here.

With `CCS(=O)(=O)Cc1cnc(Oc2ccc(F)cc2F)c(-c2cc(C)c3c(=O)[nH]ccn23)c1` [ZB-BD-216] the IC50 was 14.2 nM.

Same assay, conditions: MM.1S multiple myeloma cells

For `Cc1sc2c(c1C)C(c1ccc(Cl)cc1)=N[C@@H](CC(=O)OC(C)(C)C)c1nnc(C)n1-2` [JQ1, reference compound], the IC50 was 181 nM.
